For this data set the following is noted: acetone, ethanol, methanol, isopropyl alcohol, alkaline water-based solvents, 25° C. and 45° C.

Results on one compound are retold here after patent US20230157950A1, “OROMUCOSAL FILM COMPOSITIONS COMPRISING EPINEPHRINE PARTICLES” (ReForm Therapeutics Ltd., priority 2021, published 2023).

SMILES strings stand for the structures.

In the case of `CNC[C@H](O)c1ccc(O)c(O)c1` [Epinephrine base particles, Epinephrine base], the “time for which size and structure of epinephrine particles is maintained in solvents/dispersants” value is on record as “at least 6 hours”. Moreover, the “solubility of epinephrine particles in the selected solvents/dispersants” value (up to 6 hours, SEM) is listed as “none or very limited solubility”.
